Assay results published in paper PMC9232612, “A phase 1b randomised controlled trial of a glucagon-like peptide-1 and glucagon receptor dual agonist IBI362 (LY3305677) in Chinese patients with type 2 diabetes” (Nature Communications, 2022).
Values joined by “and” are separate entries in the source; they are usually repeats but may differ in a detail not shown here. Equal values may be shown once.

Experiments:
Format in all cases: in vivo, human
[1] = system: Chinese patients with T2D; assay: Mixed-meal tolerance test (MTT): C peptide
Experimental: (§1) HbA1c (2200101, Bio-Rad, USA), blood glucose (05168791190, Roche Diagnostics, Germany), insulin (12017547122, Roche Diagnostics, Germany), C peptide (03184897190, Roche Diagnostics, Germany), total GLP-1 (GLP-1 [7–36] amide and its metabolite, GLP-1 [9–36] amide, 10-1278-01, Mercodia AB, Sweden) and OXM (AL-139, AnshLabs, USA) tests were performed according to the manufactures’ instruction manuals in a central laboratory (KingMed Diagnostics, Guangzhou, China). HbA1c was measured using a Bio-rad D-100 Haemoglobin Testing System (Bio-rad). Blood glucose was measured using a Roche Cobas c702 analyser (Roche Diagnostics). Insulin and C peptide were measured using a Roche […] analyser (Roche Diagnostics). GLP-1 and OXM were measured using a Tecan Infinite M Plex microplate reader (TECAN).
(§2) Standard non-compartmental pharmacokinetics methods were used to analyze IBI362 plasma concentration data using Pkanalix 2020R1 (Lixoft, Antony, France). Secondary efficacy outcomes included change from baseline to week 12 in HbA1c, fasting plasma glucose (FPG), fasting insulin levels, change from baseline to week 12 in post-mixed-meal tolerance test (post-MTT) glucose, insulin, C peptide, GLP-1 and OXM levels, as well as seven-point self-measured blood glucose (SMBG) profile.
IBI362 Innovent Biologics (Suzhou) Co., Ltd. CIBI362A101
3. Standard meal test (MTT) collection measures included: insulin, C-peptide, plasma glucose, glucagon, endogenous OXM, and endogenous GLP-1. The sampling points include: fasting, 30 min, 1h, 2h, 3h and 4h.
A total of 9 mL blood will be collected from each blood collection point. See the manual of the central laboratory for the detailed operation process. Fasting state refers to fasting for 10 hours. [ The standard meal is
instant noodles. The master Kang roast beef noodles (bucket noodles) purchased by the sponsor in a unified manner are removed from the oil bag. The noodles are soaked in boiled water and then removed. The seasoning
bag is added and mixed well. The time is counted from the first bite of eating. The noodles are eaten within 10 minutes, and 200 mL of water is drunk; or the instant noodles are directly opened with 200 mL of boiled
water to ensure that the noodles are eaten and the water or soup is drunk]. Visit days when MTT test is performed: 1 day prior to Cycle 1 administration, Day 80 (D80).
4. If the patient experiences drug-related adverse events during dose escalation and meets the protocol-specified tolerance criteria, dose adjustment is required at the investigator's discretion, and a standard meal test
should be performed 48 hours after the first dose after dose adjustment.
● Test by central laboratory

[2] = system: Chinese patients with T2D; assay: Fasting plasma glucose (FPG); settings: MMRM; for Change from baseline in fasting plasma glucose, LS mean (SE) / Fasting plasma glucose: ETD versus placebo, LS mean (90% CI): week 12
Experimental: as §1, §2
The analyses for change from baseline in HbA1c, FPG, post-MTT glucose AUC0–4 h and body weight were performed using the mixed-effect model for repeated measures (MMRM) with least-squares means and standard error provided. The MMRM included the corresponding baseline value, treatment, visit and treatment-by-visit as fixed effects and patient as a random effect. Mean change or mean percent change from baseline were analysed using a restricted maximum likelihood (REML)‐based repeated measures approach in combination with the Newton Raphson Algorithm. The fix effect of visit was fitted as a repeated effect and an unstructured covariance matrix was used. In case of non-converge, matrix like Variance Components and Compound Symmetry will be tested in a subsequent order until model‐convergence is achieved. The Kenward-Roger degree of freedom was used in estimating fixed effects. No missing data imputation was conducted. For HbA1c, FPG and body weight, point estimate of treatment difference versus placebo and 90% CI were provided for each IBI362 dose group and the dulaglutide group, with nominal p values.

[3] = system: Chinese patients with T2D; assay: Treatment-emergent adverse events (MedDRA SOC/preferred term), 12-week once-weekly s.c. treatment plus 8-week safety follow-up, phase 1b
Experimental: The study included a 3-week screening period, a 12-week treatment period and an 8-week safety follow-up period. During the 12-week treatment period, IBI362 or placebo was subcutaneously administered once weekly with one of the three dose-escalation schedules: 1.0–2.0–3.0 mg for the 3.0 mg cohort, 1.5–3.0–4.5 mg for the 4.5 mg cohort and 2.0–4.0–6.0 mg for the 6.0 mg cohort (each dose level administered for 4 weeks). The 6.0 mg cohort started dosing after tolerability evaluation of 1.5 mg dosing in the 4.5 mg cohort. The internal unblinded safety monitoring group was responsible for the safety monitoring. Dulaglutide was subcutaneously administered once weekly at a fixed dose of 1.5 mg. Patients who were on metformin prior to the enrolment of this trial were required to continue their previous dose of metformin throughout the trial. Investigators and authorized study personnel in each centre recorded the study data into the electronic case report forms (eCRFs), which were reviewed and validated by clinical research associates. The data in the eCRFs were submitted to the electronic data capture database.
Primary outcomes of the study were the safety and tolerability of IBI362. Safety assessment included adverse events, physical examinations, laboratory tests (including lipase, amylase and calcitonin level measures), vital signs and 12-lead electrocardiogram. Adverse events were categorized according to the Medical Dictionary for Regulatory Activities system organ classes (SOCs) and preferred terms. Treatment-emergent adverse events (TEAEs) were monitored from the time of informed consent to the safety follow-up period. The severity of TEAEs (mild, moderate or severe) and the association between an event and the study drug were assessed by investigators based on pre-specified criteria.
Safety analyses were done in the safety population (defined as all patients who received at least one dose of the study treatment). Pharmacokinetic analyses were done in the pharmacokinetic population (defined as all patients who received at least one dose of IBI362 and had at least one valid plasma concentration assessment).

Molecule: CC(C)C[C@H](NC(=O)[C@H](CC(C)C)NC(=O)[C@H](Cc1c[nH]c2ccccc12)NC(=O)[C@H](CCC(=O)O)NC(=O)[C@@H](NC(=O)[C@H](Cc1ccccc1)NC(=O)[C@H](CCC(=O)O)NC(=O)[C@H](CCCCNC(=O)COCCOCCNC(=O)COCCOCCNC(=O)CC[C@H](NC(=O)CCCCCCCCCCCCCCCCCCC(=O)O)C(=O)O)NC(=O)[C@H](C)NC(=O)[C@H](CCCCN)NC(=O)[C@H](CCCCN)NC(=O)[C@H](CCC(=O)O)NC(=O)[C@H](CC(=O)O)NC(=O)[C@H](CC(C)C)NC(=O)[C@H](Cc1ccc(O)cc1)NC(=O)[C@H](CCCCN)NC(=O)[C@H](CO)NC(=O)[C@H](Cc1ccc(O)cc1)NC(=O)[C@H](CC(=O)O)NC(=O)[C@H](CO)NC(=O)[C@@H](NC(=O)[C@H](Cc1ccccc1)NC(=O)[C@@H](NC(=O)CNC(=O)[C@H](CCC(N)=O)NC(=O)C(C)(C)NC(=O)[C@@H](N)Cc1c[nH]cn1)[C@@H](C)O)[C@@H](C)O)C(C)C)C(=O)N[C@@H](CCC(=O)O)C(=O)NCC(=O)NCC(=O)N1CCC[C@H]1C(=O)N[C@@H](CO)C(=O)N[C@@H](CO)C(=O)NCC(N)=O [IBI362]
- C peptide during MTT, mean ([1]; week 12, 0 min, 3.0 mg cohort, n=7): 2.67 ng/mL
- C peptide during MTT, mean ([1]; week 12, 0 min, 4.5 mg cohort, n=5): 2.81 ng/mL
- C peptide during MTT, mean ([1]; week 12, 0 min, 6.0 mg cohort, n=8): 2.79 ng/mL
- C peptide during MTT, mean ([1]; week 12, 30 min, 3.0 mg cohort, n=7): 3.41 ng/mL
- C peptide during MTT, mean ([1]; week 12, 30 min, 4.5 mg cohort, n=5): 3.46 ng/mL
- C peptide during MTT, mean ([1]; week 12, 30 min, 6.0 mg cohort, n=8): 3.54 ng/mL
- C peptide during MTT, mean ([1]; week 12, 60 min, 3.0 mg cohort, n=7): 5.15 ng/mL
- C peptide during MTT, mean ([1]; week 12, 60 min, 4.5 mg cohort, n=5): 4.85 ng/mL
- C peptide during MTT, mean ([1]; week 12, 60 min, 6.0 mg cohort, n=8): 5.24 ng/mL
- C peptide during MTT, mean ([1]; week 12, 120 min, 3.0 mg cohort, n=7): 8.22 ng/mL
- C peptide during MTT, mean ([1]; week 12, 120 min, 4.5 mg cohort, n=5): 6.34 ng/mL
- C peptide during MTT, mean ([1]; week 12, 120 min, 6.0 mg cohort, n=8): 8.25 ng/mL
- C peptide during MTT, mean ([1]; week 12, 180 min, 3.0 mg cohort, n=7): 7.74 ng/mL
- C peptide during MTT, mean ([1]; week 12, 180 min, 4.5 mg cohort, n=5): 7.22 ng/mL
- C peptide during MTT, mean ([1]; week 12, 180 min, 6.0 mg cohort, n=8): 7.50 ng/mL
- C peptide during MTT, mean ([1]; week 12, 240 min, 3.0 mg cohort, n=7): 5.91 ng/mL
- C peptide during MTT, mean ([1]; week 12, 240 min, 4.5 mg cohort, n=5): 5.24 ng/mL
- C peptide during MTT, mean ([1]; week 12, 240 min, 6.0 mg cohort, n=8): 5.41 ng/mL
- Change from baseline in fasting plasma glucose, LS mean ([2]; week 4, 3.0 mg cohort, n=8): -2.29 mmol/L
- Change from baseline in fasting plasma glucose, LS mean ([2]; week 4, 4.5 mg cohort, n=8): -2.47 mmol/L
- Change from baseline in fasting plasma glucose, LS mean ([2]; week 4, 6.0 mg cohort, n=8): -3.03 mmol/L
- Change from baseline in fasting plasma glucose, LS mean ([2]; week 8, 3.0 mg cohort, n=8): -2.95 mmol/L
- Change from baseline in fasting plasma glucose, LS mean ([2]; week 8, 4.5 mg cohort, n=8): -3.38 mmol/L
- Change from baseline in fasting plasma glucose, LS mean ([2]; week 8, 6.0 mg cohort, n=8): -3.50 mmol/L
- Change from baseline in fasting plasma glucose, LS mean (SE) ([2]; 3.0 mg cohort, n=8): −3.38 (0.49) mmol/L and −3.38 mmol/L
- Fasting plasma glucose: ETD versus placebo, LS mean (90% CI) ([2]; 3.0 mg cohort): -0.85 mmol/L
- Change from baseline in fasting plasma glucose, LS mean (SE) ([2]; 4.5 mg cohort, n=8): -3.82 mmol/L
- Fasting plasma glucose: ETD versus placebo, LS mean (90% CI) ([2]; 4.5 mg cohort): -1.30 mmol/L
- Change from baseline in fasting plasma glucose, LS mean (SE) ([2]; 6.0 mg cohort, n=8): -4.07 mmol/L
- median time to resolution of gastrointestinal adverse events (diarrhoea, nausea and vomiting) ([3]; 4.5 mg group, 10 events): 3.5 days
- median time to resolution of gastrointestinal adverse events (diarrhoea, nausea and vomiting) ([3]; 6.0 mg group, 11 events): 4 days
- tolerability ([3]; 3.0, 4.5 and 6.0 mg dose-escalation regimens): well tolerated

Molecule: Dulaglutide: open-label active reference, subcutaneously once weekly at a fixed dose of 1.5 mg [reference compound]
- C peptide during MTT, mean ([1]; week 12, 0 min, 1.5 mg once weekly, n=6): 3.04 ng/mL
- C peptide during MTT, mean ([1]; week 12, 30 min, 1.5 mg once weekly, n=6): 4.18 ng/mL
- C peptide during MTT, mean ([1]; week 12, 60 min, 1.5 mg once weekly, n=6): 6.16 ng/mL
- C peptide during MTT, mean ([1]; week 12, 120 min, 1.5 mg once weekly, n=6): 8.34 ng/mL
- C peptide during MTT, mean ([1]; week 12, 180 min, 1.5 mg once weekly, n=6): 5.85 ng/mL
- C peptide during MTT, mean ([1]; week 12, 240 min, 1.5 mg once weekly, n=6): 4.53 ng/mL
- Change from baseline in fasting plasma glucose, LS mean ([2]; week 4, 1.5 mg once weekly, n=6): -3.19 mmol/L
- Change from baseline in fasting plasma glucose, LS mean ([2]; week 8, 1.5 mg once weekly, n=6): -3.36 mmol/L
- Change from baseline in fasting plasma glucose, LS mean (SE) ([2]; 1.5 mg once weekly, n=6): -3.85 mmol/L
- Fasting plasma glucose: ETD versus placebo, LS mean (90% CI) ([2]; 1.5 mg once weekly): -1.32 mmol/L
- Infections and infestations (SOC) ([3]; 1.5 mg once weekly, n=6): 0 number of patients (%)
- Upper respiratory tract infection ([3]; 1.5 mg once weekly, n=6): 0 number of patients (%)
- Urinary tract infection ([3]; 1.5 mg once weekly, n=6): 0 number of patients (%)
